Experimental data as given in patent publication US20250326744A1, “PIPERAZINE DERIVATIVE OR SALT THEREOF, AND PHARMACEUTICAL COMPOSITION” (priority 2022, published 2025).
Where a name gives a salt, the structure may show the parent alone.

Experiments:
mexB (PA) strain = assay: Combinational effect with antibacterial agent against Pseudomonas aeruginosa (Test Examples 2 and 4): mexB (PA) strain with LVFX, TC or AZT at 1/4 MIC, EC99; format: cell-based; details: mexB (PA) strain, Test Example 4; for EC99, combinational effect with AZT, mexB (PA): combined with AZT at 1/4 MIC; for EC99, combinational effect with LVFX, mexB (PA): combined with LVFX at 1/4 MIC; for EC99, combinational effect with TC, mexB (PA): combined with TC at 1/4 MIC
Outline: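 EC99 denotes the minimum test-compound concentration (range 0–800 μM) that suppresses ≥99% of growth, measured by OD595, when combined with ¼ MIC levofloxacin (LVFX), tetracycline or aztreonam. The efflux-pump mutant mexB (PA), expressing mainly MexAB-OprM, was inoculated at 10^4–5 CFU/well in CAMHB for 16–20 h.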

S-3769 strain = assay: Combinational effect with antibacterial agent against Pseudomonas aeruginosa (Test Examples 2 and 4): S-3769 strain with AMK or GM at 1/4 MIC, EC99; format: cell-based; details: S-3769 strain, Test Example 4; for EC99, combinational effect with AMK, S-3769 strain: combined with AMK at 1/4 MIC; for EC99, combinational effect with GM, S-3769 strain: combined with GM at 1/4 MIC
Outline: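 EC99, the lowest test-compound concentration inhibiting growth by ≥99% (OD595), was measured with aminoglycoside AMK or GM held at ¼ MIC. Strain S-3769, a MexY-overexpressing clinical isolate, was cultured in CAMHB at 10^4 to 5 CFU/well for 16–20 h; compound range 0–800 μM.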

SMILES	EC99, combinational effect with AZT, mexB (PA) (mexB (PA) strain)	EC99, combinational effect with LVFX, mexB (PA) (mexB (PA) strain)	EC99, combinational effect with TC, mexB (PA) (mexB (PA) strain)	EC99, combinational effect with AMK, S-3769 strain (S-3769 strain)	EC99, combinational effect with GM, S-3769 strain (S-3769 strain)
CCOc1cccc(F)c1CN1CCN(C(=O)[C@H](N)C2CCN(CCc3cc(Cl)ccc3-c3cc(Cl)ccc3O)CC2)CC1 [Example 580, Hydrochloride of (R)-2-amino-2-(1-(2-(4,5′-dichloro-2′-hydroxy-[1,1-biphenyl]-2-yl)ethyl)piperidin-4-yl)-1-(4-(2-ethoxy-6-fluorobenzyl)piperazin-1-yl)ethan-1-one]	A (12.5 μM<EC99≤25 μM)	S (EC99≤12.5 μM)	A (12.5 μM<EC99≤25 μM)	S (EC99≤12.5 μM)	A (12.5 μM<EC99≤25 μM)
CCOc1cccc(F)c1CN1CCN(C(=O)[C@H](N)C2CCN(CCc3cc(Cl)ccc3-c3cccc(F)c3O)CC2)CC1 [Example 581, Hydrochloride of (R)-2-amino-2-(1-(2-(4-chloro-3′-fluoro-2′-hydroxy-[1,1-biphenyl]-2-yl)ethyl)piperidin-4-yl)-1-(4-(2-ethoxy-6-fluorobenzyl)piperazin-1-yl)ethan-1-one]	B (25 μM<EC99≤100 μM)	A (12.5 μM<EC99≤25 μM)	B (25 μM<EC99≤100 μM)	A (12.5 μM<EC99≤25 μM)	A (12.5 μM<EC99≤25 μM)
CCOc1cccc(F)c1CN1CCN(C(=O)[C@H](N)C2CCN(CCc3cc(Cl)ccc3-c3cc(O)cc(F)c3)CC2)CC1 [Example 583, Hydrochloride of (R)-2-amino-2-(1-(2-(4-chloro-3′-fluoro-5′-hydroxy-[1,1-biphenyl]-2-yl)ethyl)piperidin-4-yl)-1-(4-(2-ethoxy-6-fluorobenzyl)piperazin-1-yl)ethan-1-one]	A (12.5 μM<EC99≤25 μM)	S (EC99≤12.5 μM)	A (12.5 μM<EC99≤25 μM)	S (EC99≤12.5 μM)	S (EC99≤12.5 μM)
CCOc1cccc(F)c1CN1CCN(C(=O)[C@H](N)C2CCN(CCc3cc(Cl)ccc3-c3cc(O)cc(Cl)c3)CC2)CC1 [Example 584, (R)-2-amino-2-(1-(2-(3′,4-dichloro-5′-hydroxy-[1,1′-biphenyl]-2-yl)ethyl)piperidin-4-yl)-1-(4-(2-ethoxy-6-fluorobenzyl)piperazin-1-yl)ethan-1-one]	S (EC99≤12.5 μM)	S (EC99≤12.5 μM)	S (EC99≤12.5 μM)	S (EC99≤12.5 μM)	S (EC99≤12.5 μM)
CCOc1cccc(F)c1CN1CCN(C(=O)[C@H](N)C2CCN(CCc3cc(Cl)ccc3-c3cc(O)ccc3F)CC2)CC1 [Example 585, (R)-2-amino-2-(1-(2-(4-chloro-2′-fluoro-5′-hydroxy-[1,1′-biphenyl]-2-yl)ethyl)piperidin-4-yl)-1-(4-(2-ethoxy-6-fluorobenzyl)piperazin-1-yl)ethan-1-one]	S (EC99≤12.5 μM)	S (EC99≤12.5 μM)	S (EC99≤12.5 μM)	S (EC99≤12.5 μM)	S (EC99≤12.5 μM)
CCOc1cccc(F)c1CN1CCN(C(=O)[C@H](N)C2CCN(CCc3cc(Cl)ccc3-c3cc(O)ccc3Cl)CC2)CC1 [Example 586, Hydrochloride of (R)-2-amino-2-(1-(2-(2′,4-dichloro-5′-hydroxy-[1,1-biphenyl]-2-yl)ethyl)piperidin-4-yl)-1-(4-(2-ethoxy-6-fluorobenzyl)piperazin-1-yl)ethan-1-one]	S (EC99≤12.5 μM)	S (EC99≤12.5 μM)	S (EC99≤12.5 μM)	A (12.5 μM<EC99≤25 μM)	S (EC99≤12.5 μM)
CSc1ccc(O)cc1CN1CCN(C(=O)[C@H](N)C2CCN(CCc3cc(Cl)ccc3-c3ccccc3)CC2)CC1 [Example 587, Hydrochloride of (R)-2-amino-2-(1-(2-(4-chloro-[1,1-biphenyl]-2-yl)ethyl)piperidin-4-yl)-1-(4-(5-hydroxy-2-(methylthio)benzyl)piperazin-1-yl) ethan-1-one]	S (EC99≤12.5 μM)	S (EC99≤12.5 μM)	S (EC99≤12.5 μM)	A (12.5 μM<EC99≤25 μM)	A (12.5 μM<EC99≤25 μM)
N[C@@H](C(=O)N1CCN(Cc2c(O)cccc2C(F)(F)F)CC1)C1CCN(CCc2cc(Cl)ccc2-c2ccccc2)CC1 [Example 588, Hydrochloride of (R)-2-amino-2-(1-(2-(4-chloro-[1,1-biphenyl]-2-yl)ethyl)piperidin-4-yl)-1-(4-(2-hydroxy-6-(trifluoromethyl)benzyl)piperazin-1-yl) ethan-1-one]	B (25 μM<EC99≤100 μM)	A (12.5 μM<EC99≤25 μM)	A (12.5 μM<EC99≤25 μM)	A (12.5 μM<EC99≤25 μM)	A (12.5 μM<EC99≤25 μM)
CCSc1ccc(O)cc1CN1CCN(C(=O)[C@H](N)C2CCN(CCc3cc(Cl)ccc3-c3ccccc3)CC2)CC1 [Example 589, (R)-2-amino-2-(1-(2-(4-chloro-[1,1′-biphenyl]-2-yl)ethyl)piperidin-4-yl)-1-(4-(2-(ethylthio)-5-hydroxybenzyl)piperazin-1-yl)ethan-1-one]	S (EC99≤12.5 μM)	S (EC99≤12.5 μM)	S (EC99≤12.5 μM)	S (EC99≤12.5 μM)	S (EC99≤12.5 μM)
CSc1cccc(O)c1CN1CCN(C(=O)[C@H](N)C2CCN(CCc3cc(Cl)ccc3-c3ccccc3)CC2)CC1 [Example 590, Hydrochloride of (R)-2-amino-2-(1-(2-(4-chloro-[1,1-biphenyl]-2-yl)ethyl)piperidin-4-yl)-1-(4-(2-hydroxy-6-(methylthio)benzyl)piperazin-1-yl) ethan-1-one]	S (EC99≤12.5 μM)	S (EC99≤12.5 μM)	S (EC99≤12.5 μM)	A (12.5 μM<EC99≤25 μM)	A (12.5 μM<EC99≤25 μM)
CCSc1cccc(O)c1CN1CCN(C(=O)[C@H](N)C2CCN(CCc3cc(Cl)ccc3-c3ccccc3)CC2)CC1 [Example 591, Hydrochloride of (R)-2-amino-2-(1-(2-(4-chloro-[1,1-biphenyl]-2-yl)ethyl)piperidin-4-yl)-1-(4-(2-(ethylthio)-6-hydroxybenzyl)piperazin-1-yl)ethan-1-one]	S (EC99≤12.5 μM)	S (EC99≤12.5 μM)	S (EC99≤12.5 μM)	B (25 μM<EC99≤100 μM)	B (25 μM<EC99≤100 μM)
